Test: Evaporation time for various aerosol sterilizer
Assay type: physicochemical
Description: Evaporation Time for Various Aerosol Sterilizer

O [H2O]
Evaporation Time: state (1 minute): wet | Evaporation Time: state (2 minutes): wet | Evaporation Time: state (5 minutes): humid | Evaporation Time: state (15 minutes): droplets | Evaporation Time: state (30 minutes): droplets | Evaporation Time: state (40 minutes): droplets | Evaporation Time: state (45 minutes): dry

— patent US20010053333A1, “Antimicrobial flash-dry disinfectant aerosol” (priority 2000, published 2001)
